Eleven compounds from ChEMBL document CHEMBL4419174, “Small molecule inhibitors of apobec3g and apobec3b” (2015) can be followed below.

Calls of active or inactive are those of the source. No cut-off for these calls is given here. A value given as a limit tells only on which side of the number the result lay.

Data set [1] has as its target DNA dC->dU-editing enzyme APOBEC-3G (Homo sapiens, UniProt Q9HC16, C321A). As to the kind of experiment: Inhibition of recombinant APOBEC3G C321A mutant (unknown origin) expressed in HEK293 cells assessed as reduction in cytosine deaminase activity using 5'-6-FAM and 3'-TAMRA quench molecule tagged cytosine-containing single-stranded DNA substrate incubated for 2 hrs by fluorescence-based assay. The format is cell-based.

The target in data set [2] is DNA dC->dU-editing enzyme APOBEC-3B (Homo sapiens, UniProt Q9UH17). In words: Inhibition of recombinant APOBEC3B (unknown origin) expressed in HEK293 cells assessed as reduction in cytosine deaminase activity using 5'-6-FAM and 3'-TAMRA quench molecule tagged cytosine-containing single-stranded DNA substrate incubated for 2 hrs by fluorescence-based assay. The format is cell-based.
Sequence of DNA dC->dU-editing enzyme APOBEC-3B (Q9UH17 whole entry): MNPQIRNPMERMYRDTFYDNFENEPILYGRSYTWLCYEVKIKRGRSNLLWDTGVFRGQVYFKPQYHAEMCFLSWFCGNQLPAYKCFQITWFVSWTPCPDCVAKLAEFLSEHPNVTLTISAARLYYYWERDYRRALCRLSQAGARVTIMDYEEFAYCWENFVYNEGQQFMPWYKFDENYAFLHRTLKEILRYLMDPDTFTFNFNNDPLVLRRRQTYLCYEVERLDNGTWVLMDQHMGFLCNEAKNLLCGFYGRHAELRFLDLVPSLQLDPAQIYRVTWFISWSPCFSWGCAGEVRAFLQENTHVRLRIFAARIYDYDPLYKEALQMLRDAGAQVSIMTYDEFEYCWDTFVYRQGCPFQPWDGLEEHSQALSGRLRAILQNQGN

Data set [3] in a line: Inhibition of recombinant APOBEC3G 2K3A mutant (unknown origin) expressed in HEK293 cells assessed as reduction in cytosine deaminase activity using 5'-6-FAM and 3'-TAMRA quench molecule tagged cytosine-containing single-stranded DNA substrate incubated for 2 hrs by fluorescence-based assay. The class given is cell-based, Homo sapiens.
Data set [4] concerns the target T1, DNA dC->dU-editing enzyme APOBEC-3A (Homo sapiens, UniProt P31941). In words: Inhibition of recombinant APOBEC3A (unknown origin) expressed in HEK293 cells assessed as reduction in cytosine deaminase activity using 5'-6-FAM and 3'-TAMRA quench molecule tagged cytosine-containing single-stranded DNA substrate incubated for 2 hrs by fluorescence-based assay. The format is cell-based.

For data set [5], the target named is T2, DNA dC->dU-editing enzyme APOBEC-3G (Homo sapiens, UniProt Q9HC16). In words: Inhibition of recombinant APOBEC3G (unknown origin) expressed in HEK293 cells assessed as reduction in cytosine deaminase activity using 5'-6-FAM and 3'-TAMRA quench molecule tagged cytosine-containing single-stranded DNA substrate incubated for 2 hrs by fluorescence-based assay. The class given is cell-based.
T2 sequence (Q9HC16 whole entry): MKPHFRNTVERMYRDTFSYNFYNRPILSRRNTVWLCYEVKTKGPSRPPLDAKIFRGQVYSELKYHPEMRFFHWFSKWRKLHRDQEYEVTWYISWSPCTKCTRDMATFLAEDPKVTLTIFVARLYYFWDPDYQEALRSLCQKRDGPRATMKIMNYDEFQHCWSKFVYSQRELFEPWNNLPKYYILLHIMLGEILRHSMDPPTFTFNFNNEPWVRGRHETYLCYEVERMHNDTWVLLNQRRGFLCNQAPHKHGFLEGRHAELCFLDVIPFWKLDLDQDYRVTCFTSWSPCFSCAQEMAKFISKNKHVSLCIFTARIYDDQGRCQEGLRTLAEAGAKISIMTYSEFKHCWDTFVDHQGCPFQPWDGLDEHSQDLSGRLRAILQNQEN

Data set [6] addresses T1, DNA dC->dU-editing enzyme APOBEC-3A. As to conditions: HEK293, 200 uM.
Description: Inhibition of recombinant APOBEC3A (unknown origin) expressed in HEK293 cells assessed as reduction in cytosine deaminase activity at 200 uM using 5'-6-FAM and 3'-TAMRA quench molecule tagged cytosine-containing single-stranded DNA substrate incubated for 2 hrs and measured on day 0 by fluorescence-based assay
The target in data set [7] is T2, DNA dC->dU-editing enzyme APOBEC-3G. In words: Inhibition of recombinant APOBEC3G (unknown origin) expressed in HEK293 cells assessed as reduction in cytosine deaminase activity at 200 uM using 5'-6-FAM and 3'-TAMRA quench molecule tagged cytosine-containing single-stranded DNA substrate incubated for 2 hrs and measured on day 0 by fluorescence-based assay. The format is cell-based.

The nature of data set [8]: Drug metabolism in DMSO at 10 mM shaken gently at 25 degC open to atmosphere condition assessed as 2-oxo-1,2-dihydroquinoline-4-carboxylic acid formation after 38 days by HPLC analysis.
The nature of data set [9]: Stability in saturated N2 atmosphere assessed as drug degradation by NMR and LC-MS/MS analysis. The class given is physicochemical.
The nature of data set [10]: Stability in DMSO assessed as drug degradation incubated for 21 days by HPLC analysis. Particulars: 504 h. The format is physicochemical.
Data set [11] can be described thus: Toxicity in HEK293T cells assessed as cell viability at 50 uM incubated for 5 days relative to control. The format is cell-based, HEK-293T. Particulars: human, read-out: Activity.
Data set [12] can be described thus: Stability in DMSO assessed as drug degradation at -20 to 37 degC by HPLC analysis. The format is physicochemical.
The nature of data set [13]: Toxicity in human HeLa cells assessed as cell viability at 50 uM incubated for 5 days relative to control. The format is cell-based. As to conditions: read-out: Activity.
Data set [14] has as its target T2, DNA dC->dU-editing enzyme APOBEC-3G. In words: Inhibition of recombinant APOBEC3G (unknown origin) expressed in HEK293 cells assessed as reduction in cytosine deaminase activity using 5'-6-FAM and 3'-TAMRA quench molecule tagged cytosine-containing single-stranded DNA substrate incubated for 2 hrs and measured on at days 3, 21, 38, and 72 by fluorescence-based assay. The format is cell-based.

Data set [15] is described as follows: Drug metabolism in DMSO at 10 mM shaken gently at 25 degC exposed to visible light (300 W) in oxygen-saturated atmosphere assessed as 2-oxo-1,2-dihydroquinoline-4-carboxylic acid formation after 38 days by HPLC analysis.
The nature of data set [16]: Stability in DMSO at 10 mM shaken gently at 25 degC exposed toN2 atmosphere assessed as compound degradation measured over 9 hrs by HPLC analysis. The class given is physicochemical. As to conditions: 10000 µM.
Data set [17] is described as follows: Stability in DMSO assessed as light dependent drug degradation by HPLC analysis. The class given is physicochemical.
For data set [18], the target named is T1, DNA dC->dU-editing enzyme APOBEC-3A. In words: Inhibition of recombinant APOBEC3A (unknown origin) expressed in HEK293 cells assessed as reduction in cytosine deaminase activity at 200 uM using 5'-6-FAM and 3'-TAMRA quench molecule tagged cytosine-containing single-stranded DNA substrate incubated for 2 hrs by fluorescence-based assay relative to control. The format is cell-based.

T1 sequence (P31941 whole entry): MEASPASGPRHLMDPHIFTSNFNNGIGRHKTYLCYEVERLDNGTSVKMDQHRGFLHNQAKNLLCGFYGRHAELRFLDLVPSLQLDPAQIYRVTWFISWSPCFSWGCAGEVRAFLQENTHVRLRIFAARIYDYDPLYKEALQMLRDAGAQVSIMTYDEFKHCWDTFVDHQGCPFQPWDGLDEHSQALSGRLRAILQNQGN
Sequence of DNA dC->dU-editing enzyme APOBEC-3G (Homo sapiens, UniProt Q9HC16, C321A) (Q9HC16 whole entry C321A): as the sequence (Q9HC16 whole entry) above, with C321A counted along it

As a reminder, the IC50 is the point on the concentration scale where inhibition reaches its midpoint. For the compound `COc1ccc2[nH]c(=O)cc(C(=O)Nc3nnc(-c4ccncc4)s3)c2c1`, the half-inhibitory concentration (IC50) in data set [1] is 20 µM; in data set [2] it was 37 µM; in [3] it was 24 µM; in data set [4], greater than 100 µM; in data set [5], 17 µM.
On the same counts, the results for `O=C(Nc1nnc(-c2ccncc2)s1)c1cc(=O)[nH]c2ccc([N+](=O)[O-])cc12` are 23 µM, 31 µM, 74 µM, greater than 100 µM and 12 µM.
In the case of `O=C(O)c1cccc2c1C(=O)N(c1ccccc1)C2`, the half-inhibitory concentration (IC50) in [4] was 111 µM.
The inhibition is the relative decrease from the control value, in per cent. `Cc1ccc(-c2cc(C(=O)Nc3nnc(-c4ccncc4)s3)c3ccccc3n2)o1`: the inhibition result in data set [6], in data set [7] and in data set [14] was “inactive” in each case. Moreover, the Drug metabolism result in [8] and in data set [15] was “Metabolite detected” each time. Besides, the Stability result in [9] was “Stable”; in data set [10] it was “Unstable”; in data set [12], “Unstable”; in [16] it was “Stable”; in [17], “Unstable”. In addition, the viability at 120 h, 50 µM in data set [11] and in data set [13] was greater than 85% each time.
Consider `Nc1ccc2[nH]c(=O)cc(C(=O)Nc3nnc(-c4ccncc4)s3)c2c1`, for which the half-inhibitory concentration (IC50) is 30 µM in data set [1]; 31 µM in data set [2]; 55 µM in data set [3]; greater than 100 µM in data set [4]; 18 µM in [5].
For the compound `O=C(Nc1nnc(-c2ccncc2)s1)c1cc(Cl)nc2ccccc12`, the IC50 was greater than 100 µM in data set [1]; greater than 100 µM in [2]; greater than 100 µM in [3]; greater than 100 µM in data set [4]; 22 µM in data set [5].
Take `O=C(Nc1nnc(-c2ccncc2)s1)c1cc(=O)[nH]c2ccccc12`: the half-inhibitory concentration (IC50) in [1] was greater than 100 µM; in [2] it was greater than 100 µM; in [3], greater than 100 µM; in data set [4] it was greater than 100 µM; in [5] it was 90 µM. Further, the inhibition in data set [18] stood at 50%.
With `O=C(Nc1nnc(-c2ccncc2)s1)c1cc(Br)nc2ccccc12`, the 50% inhibitory concentration (IC50) in [1] was 52 µM; in [2] it was 65 µM; in [4], 75 µM; in [5] it was 32 µM.
For the compound `N#Cc1ncnn1C(=O)c1cc(=O)[nH]c2ccccc12`, the half-maximal inhibitory concentration (IC50) in data set [1] was greater than 100 µM; in data set [2], greater than 100 µM; in [3] it was greater than 100 µM; in [4] it was greater than 100 µM; in [5], 15 µM.
On to `O=C(Nc1nnc(-c2ccncc2)s1)c1ccnc(O)c1`, for which the half-inhibitory concentration (IC50) in data set [3] is greater than 100 µM; in data set [4], greater than 100 µM; in [5], 60 µM.
In the case of `O=C(Nc1nnc(-c2ccncc2)s1)c1ccc(O)nc1`, the 50% inhibitory concentration (IC50) was found to be 31 µM in data set [1], 30 µM in data set [2], 87 µM in data set [4] and 21 µM in data set [5].
